Experimental data published in patent publication EP4772498A1, “COMPOUND ACTING AS ANDROGEN RECEPTOR ANTAGONIST” (China Pharmaceutical University, priority 2023, dated 2025).
Like-named read-outs stand apart in the source and are kept apart here. Marks after values point to notes of the source that are not given here.

What was measured:
in vitro = conditions: human, blood
Method: (§1) 1 mM stock solutions of the test compounds were prepared in DMSO, and a 1 mM stock solution of the reference compound propantheline was prepared in acetonitrile.
(§2) 4 µL of test compound (or reference compound) stock solution was added to 796 µL of pre-incubated human blood (whole blood) at a final concentration of 5 µM. The final concentration of the solvent was 0.5%. At different time points (including 5 min, 15 min, 30 min, 60 min, and 120 min), a 50 µL aliquot of the whole blood containing the sample was added to a new tube and incubated in a 37 °C water bath with shaking at 60 rpm. The treatment was performed in duplicate. At designated time points, 300 µL of room-temperature quenching solution (a solution of acetonitrile containing internal standards (100 nM alprazolam, 500 nM labetalol, and 2 µM ketoprofen)) was added to the whole blood sample containing the sample to terminate the reaction. 50 µL of whole blood containing the sample was added to a new tube containing 300 µL of room-temperature quenching solution to prepare a sample at 0 min. All samples were vortexed for 5 min. The samples in the plate were centrifuged at 3220 g for 30 min at 4 °C to precipitate the proteins. 100 µL of the supernatant was transferred to a new 96-well plate containing 100 µL of water for LC-MS/MS analysis.
(§3) The peak area ratio was determined by using an extracted ion chromatogram. The proportion of remaining compound at each time point was calculated according to the following formula: Remaning proporion t min (%) = peak area ratio t min / peak area ratio 0 min × 100% [formula] • Peak area ratio t min: peak area ratio of reference compound to test compound at t min; • Peak area ratio 0 min: peak area ratio of reference compound to test compound at time zero.
(§4) The slope value was determined by linear regression on the curve of the natural logarithm of the remaining proportion of the test compound versus the incubation time.
(§5) Determination of in vitro half-life (in vitro t1/2) from the slope value: in vitro t1/2 = 0.693/k [formula] in the formula, k is the rate constant (k = -slope value)

[1] = Metabolic stability assay in liver microsomes; type: in vitro ADME; conditions: pH 7.4, human liver microsome 0.5 mg/mL, 1 mM NADPH, compound 1 µM, 37 °C; for microsomal CLint at 1 µM: read-out: In vitro Clint; for half-life at 1 µM: read-out: In vitro T1/2
Method: The metabolic stability of compounds disclosed herein in liver microsomes was determined using the following method.
• 1. Liver microsome source: Human liver microsome (Corning, 452117) • 2. Na2HPO4 (Tianjin Guangfu Fine Chemical Research Institute, 20180130) • 3. KH2PO4 (Tianjin Guangfu Fine Chemical Research Institute, 20180920) • 4. MgCl2 (Tianjin Guangfu Fine Chemical Research Institute, 20191216) • 5. NADPH (Solarbio, 1216C022) • 6. Positive control compound verapamil (Sigma, MKBV4993V) • 7. AB Sciex Triple Quad 4000 liquid chromatography-mass spectrometry system
1. Preparation of 100 mM phosphate-buffered saline (PBS): 7.098 g Na2HPO4 was dissolved in 500 mL of purified water by sonication to give solution A. 3.400 g of KH2PO4 was dissolved in 250 mL of purified water by sonication to give solution B. Solution A was placed on a stirrer, and solution B was added slowly until the pH reached 7.4, so as to give a 100 mM PBS buffer. 2. Preparation of reaction system The reaction system was prepared according to the table below.
3. The reaction system was pre-incubated in a 37 °C water bath for 10 min. 40 µL of 10 mM NADPH solution (NADPH was dissolved in 100 mM phosphate-buffered saline) was added to the reaction system, with the final concentration of NADPH being 1 mM. A negative control was prepared by replacing the NADPH solution with 40 µL of phosphate-buffered saline. The negative control was used to exclude the effect of the chemical stability of the compound itself. 4. The reaction was initiated by adding 4 µL of 100 µM compound disclosed herein or positive control compound verapamil to the reaction system at a final concentration of 1 µM. 5. After 0.5 min, 15 min, 30 min, 45 min, and 60 min of mixing well by using a vortex oscillator, 50 µ L of the incubated sample was taken out, and glacial acetonitrile containing an internal standard of 4 folds was added to terminate the reaction. The sample was centrifuged at 3,220 g for 45 min. 90 µL of the supernatant was transferred to a feeding plate after the centrifugation was completed, and 90 µL ultrapure water was added. The mixture was well mixed for LC-MS/MS analysis.
All data were calculated by using Microsoft Excel software. The peak areas were determined by using an extracted ion chromatogram. The in vitro half-life (T1/2) of the test compound was determined by linear fitting of the natural logarithm of the elimination proportion of the test compound over time. In vitro half-life (T1/2) was calculated by the slope k: in vitro T1/2 = 0.693/k [formula]
The in vitro intrinsic clearance (in vitro CLint, unit: µL/min/mg protein) was calculated using the following formula: in vitro CLint = k × volume of incubation solution/enzyme protein content; [formula]

AR = AR antagonistic activity: AR / PSA ARE1 luciferase reporter gene assay in transfected LNCaP cells stimulated with 1 nM DHT; type: cell-based; conditions: treatment concentration: 3.3 µM, 24 h, normalised to 0.1% DMSO and 30 µM enzalutamide
Method: LNCaP cells were plated in a 6-well plate (Corning, 3516) at 8 × 10^5 cells/well.
AR and PSA ARE1 reporter gene plasmids (Bio (Anhui) Co., Ltd.) and transfection reagents Lipo3000 and P3000 (Lipofectamine™ 3000) (a total of 2.5 µg of plasmids, i.e., 1.25 µg of each plasmid, were added to each well) were left to stand and incubated for 10 min, and then 250 µL of the above transfection reagents were added dropwise to each well containing cells and co-incubated with the cells for 24 h.
The cells were washed with PBS, and the medium was replaced with a phenol red-free RPMI-1640 medium containing 5% carbon adsorption serum (or 10% fetal bovine serum and 1% penicillin and streptomycin). The cells were re-plated onto a 96-well plate (Corning, 3603) according to the number of cells plated (2 × 10^4 cells/well).
After cell plating, the test compound (or DMSO or positive control) was added. After at least 30 min of incubation, DHT (dihydrotestosterone) was added to the culture system at a final concentration of 1 nM. The culture system was then incubated in a carbon dioxide incubator.
Test compound: 10 mM stock solution, with a final concentration of 3.3 µM or 6.7 µM. Negative control: 0.1% DMSO. Positive control: 30 µM enzalutamide.
After the test compound (or DMSO or positive control) and DHT were co-incubated for 24 h, the luciferase signal was detected using the Vazyme Bright-Lite substrate. The medium was added at 70 µL/well, and the plate was shaken for 2 min, followed by reading of the luciferase signal.
Assay robustness was confirmed using the DMSO and low concentration control data: Ave_H = Ave(DMSO) [formula] Ave_L = Ave (30μMenzalutamide) [formula] Inhibition rate (%) = (Ave_H−Sample)/(Ave_H−Ave_L) × 100% [formula] Ave_H: the measurement of the negative control (0.1% DMSO); Ave_L: the measurement of the positive control (30 µM enzalutamide); Sample: the measurement of the test compound; The corresponding activity test results for the test compounds were specified in Table 1. Table 1. Corresponding activity test results for compounds disclosed herein

[2] = 5 µM
Method: as §1, §2, §3, §4, §5

C57BL/6 mice [3] = assay: In vivo pharmacodynamic study 1: hair growth scoring in shaved telogen-phase mice, topical treatment; conditions: for Score (mean±SD): hair growth score 0-5, topical twice daily, compound 001 2 wt%, compound 008 0.5 wt%
Text: (§6) Animal information: C57BL/6 mice (male, aged 4-6 weeks, about 18-20 g), purchased from Shanghai Lingchang Biotechnology Co., Ltd. The mice were bred in an SPF-level environment within independently ventilated cages.
(§7) Skin preparation: After 1-2 weeks of acclimation, the hairs in a 2 cm × 3 cm area of the back of the mice were shaved to confirm that the hairs of the mice were in the telogen phase (the skin was pink) and the skin was not damaged.
(§8) Treatment: On day 3 after shaving, the mice were grouped for treatment. […] The control group received the control solvent. 12 mice were in each group.
(§9) The mice were weighed on days 10, 13, 18, 21, 25, and 30, and the hair growth state was scored and photographed.
(§10) The scoring criteria are as follows: • 0: no growth, with pink skin in the shaved area; • 1: the skin in the shaved area was gray (an increase of less than 20%); • 2: the skin in the shaved area was black (more than 20% but less than 40%); • 3: the skin in the shaved area was black with a little hair growth (more than 40% but less than 60%); • 4: the skin in the shaved area was black with partial hair growth (more than 60% but less than 80%); • 5: basically complete hair growth (80%-100% growth) in the shaved area.

C57BL/6 mice [4] = conditions: mouse, in vivo
Text: as §6, §7, §8, §9, §10

Whole blood stability = conditions: human
Method: as §1, §2, §3, §4, §5

C57BL/6 mice [5] = assay: In vivo pharmacodynamic study 2: hair growth scoring in shaved telogen-phase mice, topical treatment; conditions: for Score (mean±SD): hair growth score 0-5, 0.5 wt% topical twice daily
Text: Vehicle: propylene glycol/ethanol (30:70, v/v)
A 1 cm × 1 cm area in the center of the back skin was selected as the treatment area.
The control group received the control solvent. 12 mice were in each group.
The mice were weighed on days 9, 12, 15, 19, and 22, and the hair growth state was scored and photographed.

[6] = at the investigated doses (0.5 wt%, BID topical)

Work on `CCOC(=O)C(C)(O)C(=O)Nc1cnc(C#N)c(SC)c1` (single isomer, unassigned) [Compound 016B] yielded a half-life at 5 µM (in vitro) of 1.69 h, a microsomal CLint at 1 µM ([1]; microsomes) of 88.3 µL/min/mg and a half-life at 1 µM ([1]; microsomes) of 0.262 h. For the same compound, the “AR antagonism (inhibition rate, %)” value (AR) was 90.50^a %.
With `CCOC(=O)C(C)(O)C(=O)Nc1cnc(C#N)c(C(F)(F)F)c1` (stereo not drawn) [Compound 001, Ethyl 3-[[6-cyano-5-(trifluoromethyl)-pyridin-3-yl]amino]-2-hydroxy-2-methyl-3-oxopropanoate] the “Human whole blood half-life T1/2” value [2] was 2.9982 h, the “Score (mean±SD)” value (C57BL/6 mice [3]; Day 0) was 0 and the “Score (mean±SD)” value (C57BL/6 mice [3]; Day 10) was 0.6±0.5. For the same compound, the “Score (mean±SD)” value (C57BL/6 mice [3]; Day 13) was 0.9±0.9, the “Score (mean±SD)” value (C57BL/6 mice [3]; Day 18) was 1.3±1.4 and the “Score (mean±SD)” value (C57BL/6 mice [3]; Day 21) was 1.9±1.8. For the same compound, the “Score (mean±SD)” value (C57BL/6 mice [3]; Day 25) was 2.4±2.2, the “Score (mean±SD)” value (C57BL/6 mice [3]; Day 30) was 3.0±1.8 and the “effect on mouse hair growth” value (C57BL/6 mice [3]; compound 001 at 2%, compound 008 at 0.5%, BID topically at 20 µL/cm^2) was “significant promoting effect”. For the same compound, the “day of the treatment from which hair growth was significantly promoted” value (C57BL/6 mice [3]; vs. vehicle control, 001 P < 0.01, 008 P < 0.05) was no less than 10 days, the “AR antagonism (inhibition rate, %)” value (AR) was 86.6^a % and the “impact on the body weight of the mice” value (C57BL/6 mice [4]) was “no significant impact”. For the same compound, the “signs of erythema, dehiscence, desquamation, and the like on the skin” value (C57BL/6 mice [4]) was “no signs”.
In the case of `CC(C)OC(=O)C(C)(O)C(=O)Nc1cnc(C#N)c(C(F)(F)F)c1` (stereo not drawn) [Compound 013, Isopropyl 3-[[6-cyano-5-(trifluoromethyl)-pyridin-3-yl]amino]-2-hydroxy-2-methyl-3-oxopropanoate], the half-life at 5 µM (Whole blood stability) is reported as 5.82 h and the “AR antagonism (inhibition rate, %)” value (AR) is reported as 90.0^a %.
Work on `CCOC(=O)[C@@](C)(O)C(=O)Nc1cnc(C#N)c(SC)c1` [Compound 016A, ethyl (2S)-3-[(6-cyano-5-methylthio-pyridin-3-yl)amino]-2-hydroxy-2-methyl-3-oxopropanoate] yielded a half-life at 5 µM (Whole blood stability) of 2.2 h, a microsomal CLint at 1 µM ([1]; human liver microsomes) of 91.8 µL/min/mg and a half-life at 1 µM ([1]; human liver microsomes) of 0.252 h. For the same compound, the “effect on hair growth” value (C57BL/6 mice [5]; 0.5 wt%, BID topically at 20 µL/cm^2) was “significant promoting effect”, the “Score (mean±SD)” value (C57BL/6 mice [5]; Day 0) was 0 and the “Score (mean±SD)” value (C57BL/6 mice [5]; Day 9) was 0.1±0.3. For the same compound, the “Score (mean±SD)” value (C57BL/6 mice [5]; Day 12) was 0.1±0.3, the “Score (mean±SD)” value (C57BL/6 mice [5]; Day 15) was 0.5±0.8 and the “Score (mean±SD)” value (C57BL/6 mice [5]; Day 19) was 1.7±1.5. For the same compound, the “Score (mean±SD)” value (C57BL/6 mice [5]; Day 22) was 2.9±1.6, the “impact on the body weight of the mice” value (C57BL/6 mice [5]; [6]) was “no significant impact” and the “signs of erythema, dehiscence, desquamation, and the like on the skin” value (C57BL/6 mice [5]; [6]) was “no signs”. For the same compound, the “day of the treatment from which hair growth was significantly promoted” value (C57BL/6 mice [5]; vs. vehicle control, P < 0.0001) was no less than 19 days and the “AR antagonism (inhibition rate, %)” value (AR) was 99.98^a %.
